Values joined by “and” are separate entries in the source; they are usually repeats but may differ in a detail not shown here. Equal values may be shown once. Read-outs that look alike come from different tables or passages of the source. Marks after values point to notes of the source that are not given here.
Assays:
[1] = system: tail collagen of diabetic rats; conditions: diabetic model 19.7±7.2
Protocol: Tail tendon collagen fibrils were taken out under ice-bath, washed with physiological saline, peeled off non-collagen tissues, lyophilized and stored at −70° C. for standby use.
The lyophilized tail collagen was cut into pieces, 2 mg of tail collagen was precisely weighed, added with 10 μg/ml pepsin (solvent: 0.5 mol/L acetic acid) to reach a final concentration of 5 μg pepsin/mg tail collagen, shanken at 4° C. for 2 h, centrifuged at 40000 g for 60 min, after the volume of supernatant was precisely measured, 500 μl of supernatant and total deposition were separately transferred into 5 ml ampules, added with 6 mol/L HCl, sealed, placed in calorstat oven, and hydrolyzed at 110° C. for 24 h.
Measurement of hydroxyproline concentration in the hydrolysis solution: (1) 100 μl of hydrolysis solution was taken from each of ampules, added with about 50 μl 10 mol/L NaOH to pH 6.0, and citric acid buffer solution (50 g citric acid.H2O, 72.36 g anhydrous sodium acetate, 34 g NaOH, 11.52 ml glacial acetic acid were mixed and added with water to 1200 ml, and added with 300 ml n-propanol) 850 μl. […] (4) 10% P-DMAB (1 g p-dimethylaminobenzaldehyde, added with 3.15 mol/L perchloric acid 2.6 ml to dissolve, then diluted with n-propanol to 10 ml, ready to use) 500 μl was added, mixed quickly at 75° C. water-bath for 10 min. […]

[2] = system: left ventricular cardiac muscle collagen of diabetic rats; conditions: printed for the group of A 18 mg/kg (three values), diabetic model 42.8±4.3, sodium
Protocol: After the end of vascular compliance experiment, the heart of each of rats was taken, trimmed to remove heart auricle and right ventricle and remain only left ventricle, the trimmed tissue block was planced in a mortar, added with a small amount of liquid nitrogen and ground rapidly, added with a small amount of liquid nitrogen again when the tissue became soft and ground continuously to form a fine powder, and stored at −70° C. for standby use. About 100 mg of cardiac muscle was weighed, added with 1 ml 200 μg/ml pepsin (solvent: 0.5 mol/L acetic acid), shaken at 37 ° C. for 2 h and 24 h, respectively, centrifuged at 40000 g for 60 min, the supernatants of pepsin digestion solutions for 2 h and 24 h were separately taken, hydrolyzed and measured to determine hydroxyproline contents (the methods for hydrolysis and measurement are the same as aforementioned). The dissolubility of cardiac muscle collagen is calculated by the following formula: […]

[3] = system: AGE-BSA-collagen cross-links; conditions: n = 5
Protocol: AGE cross-link structures were prepared in vitro by cross-linking AGE-BSA to rat tail collagen coated on a 96 well ELISA plate. A ELISA method was used to evaluate the breaking effect of the compounds on AGE cross-links.
Normal Wister rats (body weight of 200±20 g) were sacrificed acutely, the tails were excised, and tail collagen was prepared at a temperature of 4° C. as follows. Tail tendon collagen fibrils were taken out, washed with physiological saline, peeled off non-collagen fibril tissues, rinsed with double-distilled water 3 times, cut into pieces, and immersed in 0.1% glacial acetic acid at 4° C. for one week during which it was shaken frequently. […] After dilution, the protein content was measured. […]
A solution containing 50 mg/ml of bovine serum albumin BSA (V) (Roch) and 0.5M of glucose in 0.2M PBS (pH 7.4) was incubated in dark at 37° C. under sterile condition for 3-4 months, to thereby form glycosylated BSA, i.e. BSA-AGE. […] Fluorescence scanning (Exi/Em (395/460 nm)) and SDS-PAGE were used to check the formation of BSA-AGE, and protein concentration was determined by the Lowery method.
The tail collagen coated 96 well ELISA plates were full-well treated with PBS (pH 7.4) for 1 hour to neutralize the acidic collagen. […] Within 10 minutes after the reaction, optical density (OD) was read at 450 nm on the BOBRAD Model 550 plate reader with the blank wells of the plates was set to 0. […]

[4] = system: NaCl treated diabetic rats modeled with heart failure; conditions: 10 weeks; for BNP: blood plasma
Protocol: Second batch: NaCl treated diabetic rats modeled with heart failure for 20 weeks and normal control rats synchronically and conventionally drinking water were divided into 5 groups: normal control rats synchronically and conventionally drinking water group (Normal Control), model control group (Model Control), the compound A group (ig, 9 mg/kg), the compound A group (ig, 36 mg/kg), administered with drug once per day for consecutive 10 weeks. The pharmacodynamic evaluation on left ventricular function was conducted by using a ventricular chatheterization method.
SPSS statistic software was used to analyze and treat data, and all data were expressed in mean±standard deviation (Mean±SD).

diabetic rats [5] = conditions: for CO / Cl / Diastolic pressure / Heart rate / SAC / Systolic pressure / TPR / TPR index / Organ parameters: Heart / Organ parameters: Heart ventricle / Organ parameters: Left kidney / Organ parameters: Left ventricle / Organ parameters: Right kidney: diabetic rats; for CO / Cl / Diastolic pressure / Heart rate / SAC / Systolic pressure / TPR / TPR index: 4 weeks; for Organ parameters: Heart / Organ parameters: Heart ventricle / Organ parameters: Left kidney / Organ parameters: Left ventricle / Organ parameters: Right kidney: dose not given
Protocol: Rats were anesthetized with pentobarbital sodium injection (0.8%, 50 mg/kg), subjected to tracheal cannula, heparin anticoagulation, right common carotid artery cannula, communicated with Biopac physiological recorder via is pressure transducers to record blood pressure; subjected to thoracotomy at middle of sternum, separation of ascending aorta which was covered with pulse Doppler probe, and the pulse Doppler rheometer was linked to the Biopac physiological recorder for real-time recording and calculating hemodynamic parameters by the software of Biopac (Acknowledge, Version 3): systolic blood pressure (SBP), diastolic blood pressure (DBP), heart rate (HR), cardiac output
(CO), cardiac index (CI), total peripheral resistance (TPR), total peripheral resistance index (TPR Index), stroke volume (SV) and system arterial compliance (SAC), etc. After 10 min of postoperative stabilization, these parameters were recorded continuously, and mean values for 30 s were used as the measured values of these parameters.
Formula for calculating some of hemodynamic parameters: TPR=mean arterial pressure (MAP)/CO SAC=SV/(SBP−DBP)

diabetic rats [6] = conditions: for HR / LVEDP / LVSP / Neg dp/dt / Pos dp/dt: 4 weeks
Protocol: Rats were anesthetized with pentobarbital sodium injection (0.8%, 50 mg/kg), subjected to tracheal cannula, heparin anticoagulation, right common carotid artery cannula to left ventricle, communicated with Biopac physiological recorder via pressure transducers to record left ventricular pressure tracing, and the software of Biopac (Acknowledge, Version 3) was used for real-time reacording: heart rate, left ventricular systolic pressure peak (LVSP), maximum rate of change of left intraventricular pressure (±dp/dtmax), left ventricular end diastolic pressure (LVEDP). After 10 min of postoperative stabilization, the above parameters were recorded continuously, and mean values for 30 s were used as the measured values of these parameters.

With `Cc1csc[n+]1CC(=O)O.[Na+]` [A, 3-carboxymethyl-4-methyl-thiazolium bromide sodium] the tail collagen dissolubility ([1]; A 18 mg/kg) was 33.7±17.8%, the tail collagen dissolubility ([1]; A 36 mg/kg) was 37.5±11.1% and the “cardiac muscle collagen dissolubility” value [2] was 54.7±11.0% and 53.7±11.9% and 57.7±7.3%. For the same molecule, the “Breaking rate (decrease % in OD)” value ([3]; 0.01 umol/L) was 8.1 ± 4.76, n =5%, the “Breaking rate (decrease % in OD)” value ([3]; 0.1 umol/L) was 11.3 ± 7.70, n = 5% and the Heart rate ([4]; 9 mg/kg ig) was 418.3 ± 27.2 Beats/min. For the same molecule, the LVEDP ([4]; 9 mg/kg ig) was 11.6 ± 2.9^d mmHg, the LVSP ([4]; 9 mg/kg ig) was 187.6 ± 22.3 mmHg and the Neg dp/pt ([4]; 9 mg/kg ig) was 10729 ± 2035^d mmHg/s. For the same molecule, the Pos dp/pt ([4]; 9 mg/kg ig) was 10729 ± 2035^d mmHg/s, the Heart rate ([4]; 36 mg/kg ig) was 406.1 ± 32.9 Beats/min and the LVEDP ([4]; 36 mg/kg ig) was 13.0 ± 6.1^d mmHg. For the same molecule, the LVSP ([4]; 36 mg/kg ig) was 189.2 ± 13.8 mmHg, the Neg dp/pt ([4]; 36 mg/kg ig) was 10033 ± 2044^d mmHg/s and the Pos dp/pt ([4]; 36 mg/kg ig) was 10033 ± 2044^d mmHg/s. For the same molecule, the BNP ([4]; 9 mg/kg ig) was 50.8 ± 5.7 pg/mL, the BNP ([4]; 36 mg/kg ig) was 51.3 ± 8.1 pg/mL and the CO (diabetic rats [5]; 9 mg/kg i.g.) was 84.9 ± 13.6 mL/min. For the same molecule, the Cl (diabetic rats [5]; 9 mg/kg i.g.) was 0.194 ± 0.031 ml/min per cm^2, the Diastolic pressure (diabetic rats [5]; 9 mg/kg i.g.) was 68.8 ± 14.0 mmHg and the Heart rate (diabetic rats [5]; 9 mg/kg i.g.) was 265.2 ± 25.8^ beats/min. For the same molecule, the SAC (diabetic rats [5]; 9 mg/kg i.g.) was 9.05 ± 1.44** 10^−3 ml/mmHg, the Systolic pressure (diabetic rats [5]; 9 mg/kg i.g.) was 105.3 ± 12.0 mmHg and the TPR (diabetic rats [5]; 9 mg/kg i.g.) was 78.6 ± 19.7** 10^3 · dyne · sec/cm^5. For the same molecule, the TPR index (diabetic rats [5]; 9 mg/kg i.g.) was 181.6 ± 51.3 dyne · sec/cm^3, the CO (diabetic rats [5]; 18 mg/kg i.g.) was 79.2 ± 10.6 mL/min and the Cl (diabetic rats [5]; 18 mg/kg i.g.) was 0.179 ± 0.026 ml/min per cm^2. The Diastolic pressure (diabetic rats [5]; 18 mg/kg i.g.) was 72.8 ± 17.2 mmHg, the Heart rate (diabetic rats [5]; 18 mg/kg i.g.) was 282.2 ± 31.9^ beats/min and the SAC (diabetic rats [5]; 18 mg/kg i.g.) was 8.02 ± 1.27** 10^−3 ml/mmHg. The Systolic pressure (diabetic rats [5]; 18 mg/kg i.g.) was 108.7 ± 14.7 mmHg, the TPR (diabetic rats [5]; 18 mg/kg i.g.) was 87.4 ± 22.3* 10^3 · dyne · sec/cm^5 and the TPR index (diabetic rats [5]; 18 mg/kg i.g.) was 198.2 ± 56.2 dyne · sec/cm^3. For the same molecule, the CO (diabetic rats [5]; 36 mg/kg i.g.) was 77.7 ± 10.0 mL/min, the Cl (diabetic rats [5]; 36 mg/kg i.g.) was 0.179 ± 0.024 ml/min per cm^2 and the Diastolic pressure (diabetic rats [5]; 36 mg/kg i.g.) was 60.7 ± 16.1 mmHg. The Heart rate (diabetic rats [5]; 36 mg/kg i.g.) was 261.0 ± 32.3^ beats/min, the SAC (diabetic rats [5]; 36 mg/kg i.g.) was 7.92 ± 1.11* 10^−3 ml/mmHg and the Systolic pressure (diabetic rats [5]; 36 mg/kg i.g.) was 99.2 ± 13.2 mmHg. For the same molecule, the TPR (diabetic rats [5]; 36 mg/kg i.g.) was 77.0 ± 19.6** 10^3 · dyne · sec/cm^5, the TPR index (diabetic rats [5]; 36 mg/kg i.g.) was 176.4 ± 44.6 dyne · sec/cm^3 and the “Organ parameters: Heart” value (diabetic rats [5]; first of three A lines) was 3.42 g/g × 10^-3. For the same molecule, the “Organ parameters: Heart ventricle” value (diabetic rats [5]; first of three A lines) was 2.99 g/g × 10^-3, the “Organ parameters: Left kidney” value (diabetic rats [5]; first of three A lines) was 5.20 g/g × 10^-3 and the “Organ parameters: Left ventricle” value (diabetic rats [5]; first of three A lines) was 2.29 g/g × 10^-3. The “Organ parameters: Right kidney” value (diabetic rats [5]; first of three A lines) was 5.33 g/g × 10^-3, the “Organ parameters: Heart” value (diabetic rats [5]; second of three A lines) was 3.44 g/g × 10^-3 and the “Organ parameters: Heart ventricle” value (diabetic rats [5]; second of three A lines) was 3.01 g/g × 10^-3. For the same molecule, the “Organ parameters: Left kidney” value (diabetic rats [5]; second of three A lines) was 5.16 g/g × 10^-3, the “Organ parameters: Left ventricle” value (diabetic rats [5]; second of three A lines) was 2.34 g/g × 10^-3 and the “Organ parameters: Right kidney” value (diabetic rats [5]; second of three A lines) was 5.22 g/g × 10^-3. The “Organ parameters: Heart” value (diabetic rats [5]; third of three A lines) was 3.44 g/g × 10^-3, the “Organ parameters: Heart ventricle” value (diabetic rats [5]; third of three A lines) was 3.03 g/g × 10^-3 and the “Organ parameters: Left kidney” value (diabetic rats [5]; third of three A lines) was 5.07 g/g × 10^-3. The “Organ parameters: Left ventricle” value (diabetic rats [5]; third of three A lines) was 2.32 g/g × 10^-3, the “Organ parameters: Right kidney” value (diabetic rats [5]; third of three A lines) was 5.19 g/g × 10^-3 and the effect on angiosclerosis (diabetic rats [5]; long-term diabetic rats, 4 weeks of administration) was “improving angiosclerosis”. It also gave a melting point of 182 °C, an HR (diabetic rats [6]; 9 mg/kg i.g.) of 361.80 ± 39.74 beat/min and an LVEDP (diabetic rats [6]; 9 mg/kg i.g.) of 5.73 ± 1.44 mmHg. It also gave an LVSP (diabetic rats [6]; 9 mg/kg i.g.) of 161.54 ± 13.98 mmHg, a Neg dp/dt (diabetic rats [6]; 9 mg/kg i.g.) of 7762.8 ± 320.2 mmHg/s and a Pos dp/dt (diabetic rats [6]; 9 mg/kg i.g.) of 12201.2 ± 1872.2 mmHg/s. The HR (diabetic rats [6]; 18 mg/kg i.g.) was 377.35 ± 17.54 beat/min, the LVEDP (diabetic rats [6]; 18 mg/kg i.g.) was 6.87 ± 1.26 mmHg and the LVSP (diabetic rats [6]; 18 mg/kg i.g.) was 170.65 ± 8.94 mmHg. The Neg dp/dt (diabetic rats [6]; 18 mg/kg i.g.) was 7660.8 ± 1154.8 mmHg/s, the Pos dp/dt (diabetic rats [6]; 18 mg/kg i.g.) was 11712.8 ± 1370.9 mmHg/s and the HR (diabetic rats [6]; 36 mg/kg i.g.) was 368.99 ± 31.66 beat/min. The LVEDP (diabetic rats [6]; 36 mg/kg i.g.) was 6.79 ± 2.47 mmHg, the LVSP (diabetic rats [6]; 36 mg/kg i.g.) was 168.25 ± 15.48 mmHg and the Neg dp/dt (diabetic rats [6]; 36 mg/kg i.g.) was 7675.4 ± 2216.6 mmHg/s. The Pos dp/dt (diabetic rats [6]; 36 mg/kg i.g.) was 11425.3 ± 1660.0 mmHg/s and the “effect on left ventricular functions” value (diabetic rats [6]; 4 weeks of administration) was “significant effect in improving left ventricular functions”.

Reference: patent US8338616B2, “Thiazoliums and their use for treating protein aging associated diseases” (Beijing Molecule Science And Technology Co., Ltd., priority 2008, dated 2012)
